Assay results reported in patent publication US20230200390A1, “SELECTIVE HERBICIDES BASED ON SUBSTITUTED ISOXAZOLIN CARBOXAMIDES AND MEFENPYR-DIETHYL” (BAYER AKTIENGESELLSCHAFT, priority 2020, published 2023).

Tests used:
Format in all cases: in vivo
[1] = system: spring barley, HORVS Montoya; test: Tank-mix; post-emergence: crop damage by herbicide with/without safener mefenpyr-diethyl; conditions: 21 DAT
Summary of the method: (§1)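 Visual percent crop damage (0–100 relative to untreated plants) assessed 1–3 weeks post-application. Plants in sandy loam were sprayed at the 1–3-leaf stage with herbicide with or without safener at several rates, water volume 300 l/ha.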

[2] = system: spring wheat, TRZAS Triso; test: as above; conditions: 21 DAT
Summary of the method: as §1

[3] = system: spring barley, HORVS Montoya; test: Seed treatment with safener; pre-emergence herbicide, crop damage; conditions: for HER effect + SAF / Reduction [%] / Reduction [Difference]: mefenpyr-diethyl 0.25 g a.i./kg seed
Procedure: (§2) For the safener seed treatment, sufficient seeds of the respective crops (spring wheat, TRZAS; spring barley, HORVS; maize, ZEAMA) were weighed into screw top glass bottles approximately twice the volume of the seeds.
(§3) The specified safeners, formulated as wettable powder (WP) were weighed out so that the specified rates (g a.i./kg seed) would be obtained, dissolved in water (1 ml water per 10 g of seeds), and added to the seeds to produce a slurry.
(§4) The bottles were capped and then placed in an overhead shaker (set at medium speed for ca. 60 minutes) so that the seeds were evenly coated with the slurry. The bottles were uncapped and the seeds were either placed on paper and dried for an interval of 3-4 hours prior to sowing, or directly sown. Seeds were placed in sandy loam soil in pots of a diameter of 7-8 cm, and covered with soil.
(§5) Pre-emergence application of the specified herbicides was done subsequently, on two sets of plants:
(§6) a) seed treatment with safener, as described above
(§7) The herbicides were formulated as WP and was sprayed onto the soil surface as an aqueous suspension at an equivalent water application rate of 300 l/ha.
(§8) After application, the test plants were kept in the greenhouse under good growth conditions. At intervals up to 4 weeks after application (=28 days after treatment; DAT), % crop damage observed on the treated plants was scored visually in comparison to control plants that had not received any safener or herbicide treatment.
(§9) Values in the table below are mean values of at least 2 replicates.

[4] = system: spring wheat, TRZAS Triso; test: as above; conditions: for HER effect + SAF / Reduction [%] / Reduction [Difference]: mefenpyr-diethyl 0.25 g a.i./kg seed
Procedure: as §2, §3, §4, §5, §6, §7, §8, §9

[5] = system: spring barley, HORVS Montoya; test: Seed treatment with safener; post-emergence herbicide, crop damage; conditions: 21 DAT; for HER effect + SAF / Reduction [%] / Reduction [Difference]: mefenpyr-diethyl 0.5 g a.i./kg seed
Summary of the method: (§10)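 Crop injury was rated visually in % at 10 and 21 days after post-emergence spraying at the 2-leaf stage. The herbicide was a WP in 300 l/ha water plus 1 l/ha MERO. Plants grew from seed either safener-coated at stated g a.i./kg rates via a milk-diluted slurry, or untreated.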

[6] = system: spring wheat, TRZAS Triso; test: as above; conditions: 21 DAT; for HER effect + SAF [%] (crop damage) / Reduction [%] / Reduction [Difference]: mefenpyr-diethyl 0.5 g a.i./kg seed; for HER effect [%] (crop damage, herbicide without safener): no safener
Summary of the method: as §10

[7] = system: spring barley, HORVS Montoya; test: Treatment 1 day before: safener applied one day before herbicide, crop damage; conditions: 21 DAT
From the text: (§11) Seeds of crops (spring wheat, TRZAS; spring barley, HORVS; maize, ZEAMA) were placed in sandy loam soil in pots of a diameter of 7-8 cm, covered with soil, and cultivated in a greenhouse under good growth conditions until plants were at the 1-3 leaf stage (BBCH 11-13). For split safener and herbicide treatment, first the safener was applied followed by the herbicide treatment on the following day. The safener and herbicides were formulated as WP and sprayed onto the green parts of the plants as an aqueous suspension at an equivalent water application rate of 300 l/ha, with addition of wetting agent and adjuvants (e.g. Mero, 1.5 l/ha; ammonium sulphate, 2 kg/ha). An equivalent set of plants was treated with the herbicides but without the prior safener treatment.
as §8, with “10 and 21” for “At intervals up to 4 weeks after application (=28”, “treatment (DAT) with the herbicide,” for “treatment; DAT),”

[8] = system: spring wheat, TRZAS Triso; test: as above; conditions: 21 DAT; for HER effect + SAF / Reduction [%] / Reduction [Difference]: mefenpyr-diethyl 50 g a.i./ha 1 day before
From the text: as §11
as §8, with “10 and 21” for “At intervals up to 4 weeks after application (=28”, “treatment (DAT) with the herbicide,” for “treatment; DAT),”

[9] = HER 0.5 g a.i./ha + mefenpyr-diethyl 50 g a.i./ha
[10] = HER 2 g a.i./ha + mefenpyr-diethyl 100 g a.i./ha
[11] = HER 1 g a.i./ha + mefenpyr-diethyl 50 g a.i./ha
[12] = HER 4 g a.i./ha + mefenpyr-diethyl 100 g a.i./ha
[13] = HER 5 g a.i./ha pre-emergence, 11 DAT (Interim)
[14] = HER 5 g a.i./ha pre-emergence, 21 DAT (Final)
[15] = HER 15 g a.i./ha pre-emergence, 11 DAT (Interim)
[16] = HER 15 g a.i./ha pre-emergence, 21 DAT (Final)
[17] = herbicide alone 5 g a.i./ha pre-emergence, 11 DAT (Interim)
[18] = herbicide alone 5 g a.i./ha pre-emergence, 21 DAT (Final)
[19] = herbicide alone 15 g a.i./ha pre-emergence, 11 DAT (Interim)
[20] = herbicide alone 15 g a.i./ha pre-emergence, 21 DAT (Final)
[21] = HER 0.5 g a.i./ha post-emergence
[22] = HER 48 g a.i./ha + mefenpyr-diethyl 100 g a.i./ha
[23] = HER 4 g a.i./ha + mefenpyr-diethyl 50 g a.i./ha
[24] = HER 16 g a.i./ha + mefenpyr-diethyl 100 g a.i./ha
[25] = HER 25 g a.i./ha, mefenpyr-diethyl 50 g a.i./ha 1 day before
[26] = HER 48 g a.i./ha post-emergence

C=CC1(C(=O)NC2COC(C(=O)OC)C2)CC(c2cc(F)cc(F)c2)=NO1 (mixture of isomers) [Example 1.68]
HER effect + SAF [1, 9]: 0% | Reduction [%] [1, 9]: 100% | Reduction [Difference] [1, 9]: 30 | HER effect + SAF [1, 10]: 10% | Reduction [%] [1, 10]: 75% | Reduction [Difference] [1, 10]: 30 | HER effect ([1]; herbicide alone 0.5 g a.i./ha): 30% | HER effect ([1]; herbicide alone 2 g a.i./ha): 40% | HER effect + SAF [2, 11]: 30% | Reduction [%] [2, 11]: 63% | Reduction [Difference] [2, 11]: 50 | HER effect + SAF [2, 12]: 60% | Reduction [%] [2, 12]: 29% | Reduction [Difference] [2, 12]: 25 | HER effect ([2]; herbicide alone 1 g a.i./ha): 80% | HER effect ([2]; herbicide alone 4 g a.i./ha): 85% | HER effect + SAF [3, 13]: 5% | Reduction [%] [3, 13]: 80% | Reduction [Difference] [3, 13]: 20 | HER effect + SAF [3, 14]: 5% | Reduction [%] [3, 14]: 83% | Reduction [Difference] [3, 14]: 25 | HER effect + SAF [3, 15]: 0% | Reduction [%] [3, 15]: 100% | Reduction [Difference] [3, 15]: 65 | HER effect + SAF [3, 16]: 60% | Reduction [%] [3, 16]: 25% | Reduction [Difference] [3, 16]: 20 | HER effect [3, 17]: 25% | HER effect [3, 18]: 30% | HER effect [3, 19]: 65% | HER effect [3, 20]: 80% | HER effect + SAF [4, 13]: 15% | Reduction [%] [4, 13]: 67% | Reduction [Difference] [4, 13]: 30 | HER effect + SAF [4, 14]: 5% | Reduction [%] [4, 14]: 89% | Reduction [Difference] [4, 14]: 40 | HER effect + SAF [4, 15]: 30% | Reduction [%] [4, 15]: 63% | Reduction [Difference] [4, 15]: 50 | HER effect + SAF [4, 16]: 30% | Reduction [%] [4, 16]: 65% | Reduction [Difference] [4, 16]: 55 | HER effect [4, 17]: 45% | HER effect [4, 18]: 45% | HER effect [4, 19]: 80% | HER effect [4, 20]: 85% | HER effect + SAF [5, 21]: 0% | Reduction [%] [5, 21]: 100% | Reduction [Difference] [5, 21]: 30 | HER effect + SAF ([5]; HER 2 g a.i./ha post-emergence): 0% | Reduction [%] ([5]; HER 2 g a.i./ha post-emergence): 100% | Reduction [Difference] ([5]; HER 2 g a.i./ha post-emergence): 40 | HER effect ([5]; herbicide alone 0.5 g a.i./ha post-emergence): 30% | HER effect ([5]; herbicide alone 2 g a.i./ha post-emergence): 40% | HER effect + SAF [%] (crop damage) ([6]; HER dose 1 g a.i./ha): 20% | Reduction [%] ([6]; HER dose 1 g a.i./ha): 75% | Reduction [Difference] ([6]; HER dose 1 g a.i./ha): 60 | HER effect [%] (crop damage, herbicide without safener) ([6]; HER dose 1 g a.i./ha): 80% | HER effect + SAF [%] (crop damage) ([6]; HER dose 4 g a.i./ha): 30% | Reduction [%] ([6]; HER dose 4 g a.i./ha): 65% | Reduction [Difference] ([6]; HER dose 4 g a.i./ha): 55 | HER effect [%] (crop damage, herbicide without safener) ([6]; HER dose 4 g a.i./ha): 85%

CC1(C(=O)NC2C=CC(C(=O)OCCCl)C2)CC(c2cc(F)cc(F)c2)=NO1 (mixture of isomers) [Example 1.47]
HER effect + SAF [1, 22]: 60% | Reduction [%] [1, 22]: 29% | Reduction [Difference] [1, 22]: 25 | HER effect ([1]; herbicide alone 48 g a.i./ha): 85% | HER effect + SAF [2, 23]: 10% | Reduction [%] [2, 23]: 67% | Reduction [Difference] [2, 23]: 20 | HER effect + SAF [2, 24]: 20% | Reduction [%] [2, 24]: 75% | Reduction [Difference] [2, 24]: 60 | HER effect ([2]; herbicide alone 4 g a.i./ha): 30% | HER effect ([2]; herbicide alone 16 g a.i./ha): 80% | HER effect + SAF [7, 25]: 40% | Reduction [%] [7, 25]: 33% | Reduction [Difference] [7, 25]: 20 | HER effect ([7]; herbicide alone 25 g a.i./ha): 60% | HER effect + SAF ([8]; HER 25 g a.i./ha): 35% | Reduction [%] ([8]; HER 25 g a.i./ha): 53% | Reduction [Difference] ([8]; HER 25 g a.i./ha): 40 | HER effect + SAF ([8]; HER 50 g a.i./ha): 60% | Reduction [%] ([8]; HER 50 g a.i./ha): 25% | Reduction [Difference] ([8]; HER 50 g a.i./ha): 20 | HER effect ([8]; herbicide alone 25 g a.i./ha): 75% | HER effect ([8]; herbicide alone 50 g a.i./ha): 80% | HER effect + SAF [5, 26]: 20% | Reduction [%] [5, 26]: 76% | Reduction [Difference] [5, 26]: 65 | HER effect ([5]; herbicide alone 48 g a.i./ha post-emergence): 85% | HER effect + SAF [%] (crop damage) ([6]; HER dose 4 g a.i./ha): 0% | Reduction [%] ([6]; HER dose 4 g a.i./ha): 100% | Reduction [Difference] ([6]; HER dose 4 g a.i./ha): 30 | HER effect [%] (crop damage, herbicide without safener) ([6]; HER dose 4 g a.i./ha): 30% | HER effect + SAF [%] (crop damage) ([6]; HER dose 16 g a.i./ha): 10% | Reduction [%] ([6]; HER dose 16 g a.i./ha): 88% | Reduction [Difference] ([6]; HER dose 16 g a.i./ha): 70 | HER effect [%] (crop damage, herbicide without safener) ([6]; HER dose 16 g a.i./ha): 80%
